Reference: patent publication US9884091B2, “Treatment of neurological diseases” (Lancaster University Business Enterprises Limited, priority 2014, dated 2018)

Tests used:
[1] = test system: APP/PS1 mouse model of AD; conditions: 12 months old APP/PS1 mice; cited from earlier work
APP/PS1 transgenic mice [2] = assay: Beta-amyloid plaque load in cortex by immunohistochemistry, transgenic Alzheimer's disease mouse model; assay type: in vivo; conditions: FIG. 1; 25 nmol/kg i.p. once daily for 8 weeks
Text: (§1) Transgenic Alzheimer's Disease Mouse Model
(§2) Animal models have been developed to test novel drugs. A standard model for Alzheimer's disease is transgenic mice that express human mutated genes for amyloid production that are known to induce Alzheimer's disease in humans. These APP/PS1 transgenic mice recapitulate some of the symptoms of Alzheimer's disease such as the aggregation of amyloid in the brain, memory loss and the loss of synapses (Radde et al., 2006).
(§3) The APP/PS1 mice express human Swedish mutated APP and human mutated presenilin-1 which induce Alzheimer's Disease in humans.
(§4) The dose of peptide tested was 25 nmol/kg body weight. The peptides were administered by a once-daily intraperitoneal injection for 8 weeks. Saline injections were administered as a control. Five animals per group were injected with a peptide or a saline control.
(§5) Brain Tissue Analysis for Amyloid Plaques and Synapse Numbers in AD Mice
(§6) Animals (5 per group) were perfused transcardially with 30 ml of ice-cold PBS and 30 ml of ice-cold 4% paraformaldehyde to postfix the brain. The brains were removed and placed in fresh 30% sucrose solution in PBS to cryoprotect tissue and cut at a thickness of 40 μm on a cryostat. Sections were chosen according to stereological rules, with the first section taken at random and every 5th section afterwards. Between 7 and 13 sections were analysed per brain. […]

APP/PS1 transgenic mice [3] = assay: Synaptic densities (synaptophysin immunohistochemistry) in cortex, transgenic Alzheimer's disease mouse model; assay type: in vivo; conditions: FIG. 2; 25 nmol/kg i.p. once daily for 8 weeks
Text: as §1, §2, §3, §4, §5, §6

C57BL/6 mice given MPTP [4] = assay: Rotarod motor control test, MPTP Parkinson mouse model; assay type: in vivo; conditions: FIG. 3; 25 nmol/kg i.p. once daily
Text: (§7) A standard model to induce Parkinson like symptoms in mice is the injection of the chemical (MPTP) (Li et al., 2009). This chemical impairs or kills neurons in the brain that produce dopamine. The mice develop motor impairments, and the dopaminergic neurons in the brain are reduced in numbers and function. The enzyme tyrosine hydroxylase (TH) is required to synthetise dopamine. A loss of TH signifies a loss of dopamine production (Harkavyi et al., 2008).
(§8) Adult male C57BL/6 mice were given the dopaminergic toxin MPTP (20 mg/kg in 0.1 mL of PBS i.p. at 2-h intervals of 4 doses MPTP; Sigma) or vehicle (PBS). This treatment selectively affects dopaminergic neurons and induces Parkinson-like symptoms in mice.
as §4
Rotarod Motor Control Test
The rotarod consists of a rotating pole that accelerates over time. Mice are placed on the rod, and motor skills are tested by accelerating the rotation. As the rotation increases, animals lose grip and fall on a cushion located below the rod. […] Each animal's endurance time was recorded, and the average was calculated. Data were analysed using a one-way ANOVA with post-hoc Bonferroni tests.

C57BL/6 mice given MPTP [5] = assay: Open-field motor activity task, MPTP Parkinson mouse model; assay type: in vivo; conditions: FIG. 4; 25 nmol/kg i.p. once daily
Text: as §7, §8, §4
Open-Field Motor Activity Task
Mice (6 per group) received a session of 5 min in the empty open-field (58 cm in diameter; 35 cm high walls) with painted grey walls and grey floor. […] Motor activity was recorded by total path length and travel speed. Data were analysed using two-way ANOVA with post-hoc tests.

Substance: D-Ala^2-GIP
- amyloid plaque load [1]: much reduced
- synaptic plasticity in area CA1 of the hippocampus and spatial memory formation [1]: unimpaired

Substance: YXEGTFTSDYSIYLDKQAAXEFV[Cys-40 kDAPEG]WLLAGGPSSGAPPPS[Lys-γE-C16]-NH2 (YXEGTFTSDYSIYLDKQAAXEFVXWLLAGGPSSGAPPPSX; 40 kDa PEG on Cys24; Lys γGlu-C16; C-amide; GIP/GLP1 co-agonist peptide; VARIANT 2, 20 Xaa = amino-isobutyric acid; VARIANT 24 Xaa = Cys with a covalently linked PEG molecule having an average molecular weight of 40kDa; VARIANT 40 Xaa = lysine residue connected to gamma- glutamate and C16, wherein C16 is a saturated fatty acid or palmitate) [DA2, pegylated version of DA1, position 24 modified to cysteine, γ-Glu spacer linking the C16 fatty acid]
- beta-amyloid plaque load in the cortex (% area positive for beta amyloid) (APP/PS1 transgenic mice [2]): reduces beta-amyloid plaque load
- beta-amyloid plaque load, compared with single GIP or GLP-1 analogues (APP/PS1 transgenic mice [2]): superior to the single GIP or GLP-1 analogues
- synapse loss in the cortex (synaptic densities) (APP/PS1 transgenic mice [3]): protected from synapse loss
- impairment of motor skills induced by MPTP (rotarod endurance time) (C57BL/6 mice given MPTP [4]): protect mice from an impairment of motor skills
- impairment of motor activity induced by MPTP (C57BL/6 mice given MPTP [5]): protect mice from an impairment of motor activity
